# Results as given in PubChem BioAssay (NCI).
#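 Briefly, cells in 96-well plates were exposed to five compound concentrations for 48 h, and endpoints were estimated by linear interpolation. Definition used: TGI = concentration required for complete inhibition of growth.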
# What was measured:
# Experiment in all cases: growth of human tumour cells (NCI), 48 h
# BT-549 breast = tested on: BT-549 breast
# SK-MEL-5 melanoma = tested on: SK-MEL-5 melanoma
# T-47D breast = tested on: T-47D breast
# HCC-2998 colon = tested on: HCC-2998 colon
# A549 NSCLC = tested on: A549 NSCLC
# RXF 393 renal = tested on: RXF 393 renal
# NCI-H460 lung = tested on: NCI-H460 lung
# DU-145 prostate = tested on: DU-145 prostate
# PC-3 prostate = tested on: PC-3 prostate
# UACC-257 melanoma = tested on: UACC-257 melanoma
# MDA-N = tested on: MDA-N
SMILES,TGI (BT-549 breast) [µM],TGI (SK-MEL-5 melanoma) [µM],TGI (T-47D breast) [µM],TGI (HCC-2998 colon) [µM],TGI (A549 NSCLC) [µM],TGI (RXF 393 renal) [µM],TGI (NCI-H460 lung) [µM],TGI (DU-145 prostate) [µM],TGI (PC-3 prostate) [µM],TGI (UACC-257 melanoma) [µM],TGI (MDA-N) [µM]
N#Cc1c(-c2ccc([N+](=O)[O-])cc2)cc(-c2ccc(Nc3ccnc4cc(Cl)ccc34)cc2)nc1N,> 100,> 55.4,11.1,43.2,8.8,34.9,> 73.2,33.2,37.4,62.3,17.1
CC(C)=C[C@@H]1O[C@H](O)[C@@H]([C@H]2CC[C@@]3(C)[C@@H]4CC[C@H]5C(C)(C)C(=O)CC[C@@]56C[C@@]46CC[C@]23C)[C@@H]1O,39.8,41.8,35.5,33.3,28.7,27.8,35.9,29.6,29.3,31.6,31.3
O=C1C(Cl)=C(NCCF)C(=O)c2ncccc21,2.99,2.56,4.25,2.71,4.07,3.24,3.73,2.99,3.09,3.03,0.392
O=C1NC(=Nc2ccccc2)C(=Nc2ccccc2)N1c1ccccc1,,29.7,33.2,30.7,31,29.2,30.8,25.2,27.6,29.8,25.6
CC(=O)NC1C(OCc2ccccc2)OC(CO)C(O)C1OCC(=O)N[C@@H](C)C(=O)N[C@H](CCC(=O)NCCNc1ccc([N+](=O)[O-])c2[nH]c3ccccc3c(=O)c12)C(N)=O (some centres undefined),46,> 100,> 100,36,,,30.7,> 100,,54.3,> 100
C#CC(O)/C=C/C(O)CCCC(O)CC#CC(O)C#CCCCCC(O)/C=C/CCCC(O)/C=C/CCCCCCCCCCCCCC(O)C(O)C#CC(=O)O (centres undefined),,> 25,> 25,> 25,> 25,> 25,> 25,> 25,> 25,> 25,> 25
CCN(CC)CCN1C(=O)C(=O)N(c2cccc3ccccc23)C1=O,,> 10,> 10,> 10,> 10,> 10,> 10,> 10,> 10,,> 10
C=C(C)C(=O)OC1C[C@H](COC(C)=O)C2CC=C(CO)C2C2OC(=O)C(=C)[C@H]12 (some centres undefined),> 100,> 100,> 100,> 100,> 100,,> 100,> 100,> 100,> 100,> 100
C=CCN(CCN(CC=C)S(=O)(=O)c1ccc(C)cc1)S(=O)(=O)c1ccc(C)cc1,,> 100,> 100,> 100,> 100,> 100,> 100,> 100,> 100,> 100,> 100
C[C@H]1O[C@@H](C(C)(C)C)OC(=O)[C@@H]1C(OC(=O)c1ccccc1)c1cccc2ccccc12 (some centres undefined),> 100,> 100,> 100,> 100,> 100,> 100,> 100,,> 100,> 100,> 100
Cc1ccc(SCC(OCn2cnc3c(Cl)nc(N)nc32)[C@H](C)F)cc1 (some centres undefined),> 100,47.6,> 100,> 100,> 100,,> 100,> 100,> 100,> 100,> 100
NCCNC(=O)CN(CC(=O)O)C1CCCCC1N(CC(=O)O)CC(=O)O (centres undefined),> 100,> 100,> 100,> 100,> 100,,> 100,> 100,> 100,> 100,> 100
Cc1cc2nnc(C(N)=O)c(N)c2cc1C,> 100,> 100,> 100,> 100,> 100,,> 100,> 100,> 100,> 100,> 100
CCOC(=O)C1(C(=O)OCC)C=C(c2ccccc2)N(C2OC(COC(C)=O)C(OC(C)=O)C(OC(C)=O)C2OC(C)=O)C1=S (centres undefined),> 100,> 100,> 100,> 100,> 100,> 100,> 100,> 100,,> 100,> 100
C/C(O)=C(\C=NC(=S)c1ccncc1)C(=O)Nc1ccccc1C,> 100,> 100,> 100,> 100,> 100,> 100,> 100,> 100,,> 100,> 100
COc1ccc(CCN2C(=O)CC34C=CC(CC3C2=O)O4)cc1OC (centres undefined),> 100,> 100,> 100,> 100,> 100,,,> 100,> 100,> 100,> 100
C[n+]1cn(-c2nc3ccccc3nc2[N-]S(=O)(=O)c2ccccc2)c2ccccc21,> 100,> 100,> 100,> 100,> 100,> 100,> 100,,> 100,> 100,> 100
Cc1ccc(S(=O)(=O)NC(=O)NC(CCC(N)=O)C(=O)O)cc1 (centres undefined),> 100,> 100,> 100,,> 100,> 100,> 100,> 100,> 100,> 100,> 100
Cc1cc(NS(=O)(=O)c2ccc(Nc3c4ccccc4nc4c(C(=O)NCCO)cccc34)cc2)no1,40.3,> 100,> 100,> 100,> 100,,> 100,> 100,> 100,> 100,> 100
Cc1ccc(C(=O)N/N=C2/C(=O)c3c4ccccc4cc4cccc2c34)cc1,> 100,> 70.7,83.2,> 100,> 100,> 69,> 77.2,,> 100,> 100,> 100
